EPA's ToxRefDB 2

Experiments:
rat [1] = conditions: Subchronic oral toxicity in rodents, sprague dawley, Water, dose end: 90 day, group: systemic
rat [2] = conditions: Sub-acute repeat dose toxicity; sprague dawley; Oral; Water; dose end: 14 day; group: systemic; systemic / in life observation / body weight / body weight + systemic / in life observation / food consumption / food consumption + systemic…
mouse [3] = conditions: Carcinogenicity, b6c3f1, Oral, Water, dose end: 104 week, group: systemic
rat [4] = conditions: Prenatal developmental toxicity study, long evans, Oral, Gavage/Intubation, dose end: 15 GD
rat [5] = conditions: Combined chronic toxicity/carcinogenicity, other, Oral, Feed, dose end: 104 week
dog [6] = conditions: Subchronic oral toxicity in nonrodent, beagle, Capsule, dose end: 90 day
dog [7] = conditions: Chronic toxicity, beagle, Oral, Capsule, dose end: 12 month
mouse [8] = conditions: Carcinogenicity, cd1, Oral, Feed, dose end: 102 week, group: systemic
rat [9] = conditions: Subchronic oral toxicity in rodents, sprague dawley, Feed, dose end: 13 week
[10] = systemic / in life observation / water consumption / water consumption
[11] = systemic / in life observation / water consumption / water consumption + systemic / in life observation / body weight / body weight + …
[12] = systemic / pathology microscopic / liver / adenoma + systemic / pathology microscopic / liver / adenoma/carcinoma combined + systemic / …
[13] = systemic / pathology microscopic / liver / focal cellular change
[14] = group: developmental, developmental / developmental malformation / bone / [other] + developmental / developmental malformation / general / crown-rump length + …
[15] = group: developmental, developmental / developmental malformation / general / crown-rump length + developmental / developmental malformation / all gross anomalies…
[16] = group: maternal, reproductive / reproductive performance / implantations / implantations + reproductive / reproductive performance / postimplantation loss / …
[17] = group: maternal, systemic / organ weight / kidney / absolute + systemic / organ weight / spleen / absolute
[18] = group: cholinesterase, cholinesterase / cholinesterase / cholinesterase / erythrocyte cholinesterase (che)
[19] = group: systemic, systemic / hematology / erythrocyte (rbc) count differential / erythrocyte (rbc) + systemic / hematology / hematocrit (hct) / hematocrit (…
[20] = group: systemic, systemic / urinalysis / volume / volume
[21] = group: cholinesterase, cholinesterase / cholinesterase / cholinesterase / plasma cholinesterase (che)
[22] = group: cholinesterase, cholinesterase / cholinesterase / cholinesterase / plasma cholinesterase (che) + cholinesterase / cholinesterase / cholinesterase / brain …
[23] = group: systemic, systemic / pathology microscopic / adrenal gland / cytoplasmic alteration + systemic / pathology microscopic / adrenal gland / hypertrophy
[24] = group: systemic, systemic / clinical chemistry / alanine aminotransferase (alt/sgpt) / alanine aminotransferase (alt/sgpt)
[25] = group: systemic, systemic / clinical chemistry / alanine aminotransferase (alt/sgpt) / alanine aminotransferase (alt/sgpt) + systemic / hematology / …
[26] = systemic / pathology microscopic / adrenal gland / pigmentation
[27] = systemic / pathology microscopic / adrenal gland / pigmentation + systemic / in life observation / body weight / body weight + systemic / in…
[28] = group: systemic, systemic / pathology microscopic / adrenal gland / vacuolization cytoplasmic

O=C(O)C(Cl)(Cl)Cl [Trichloroacetic acid]
LEL (rat [1]; [10]): 4.1 mg/kg/day | NEL (rat [1]; [10]): < 4.1 mg/kg/day | LOAEL (rat [1]; [11]): > 355 mg/kg/day | NOAEL (rat [1]; [11]): ≥ 355 mg/kg/day | LEL (rat [2]): 119 mg/kg/day | LOAEL (rat [2]): > 119 mg/kg/day | NEL (rat [2]): 31.6 mg/kg/day | NOAEL (rat [2]): ≥ 119 mg/kg/day | LOAEL (mouse [3]; [12]): > 572 mg/kg/day | NOAEL (mouse [3]; [12]): ≥ 572 mg/kg/day | LEL (mouse [3]; [13]): 6 mg/kg/day | NEL (mouse [3]; [13]): < 6 mg/kg/day | LOAEL (rat [4]; [14]): > 1800 mg/kg/day | NOAEL (rat [4]; [14]): ≥ 1800 mg/kg/day | LEL (rat [4]; [15]): 330 mg/kg/day | NEL (rat [4]; [15]): < 330 mg/kg/day | LOAEL (rat [4]; [16]): > 1800 mg/kg/day | NOAEL (rat [4]; [16]): ≥ 1800 mg/kg/day | LEL (rat [4]; [17]): 330 mg/kg/day | NEL (rat [4]; [17]): < 330 mg/kg/day

CCOP(=O)(SC(C)CC)N1CCSC1=O (stereo unspecified) [Fosthiazate]
LEL (rat [5]; [18]): 0.051 mg/kg/day | LOAEL (rat [5]; [18]): 0.38 mg/kg/day | NEL (rat [5]; [18]): < 0.051 mg/kg/day | NOAEL (rat [5]; group: cholinesterase, cholinesterase / cholinesterase / cholinesterase / erythrocyte cholinesterase (che) + cholinesterase / cholinesterase / cholinesterase / …): 0.039 mg/kg/day | LOAEL (rat [5]; [19]): 2.45 mg/kg/day | NOAEL (rat [5]; [19]): 0.5 mg/kg/day | LEL (rat [5]; [20]): 0.039 mg/kg/day | NEL (rat [5]; [20]): < 0.039 mg/kg/day | LEL (dog [6]; [21]): 0.11 mg/kg/day | LOAEL (dog [6]; [21]): 0.11 mg/kg/day | NEL (dog [6]; [22]): 0.054 mg/kg/day | NOAEL (dog [6]; [22]): 0.054 mg/kg/day | LEL (dog [6]; [23]): 0.11 mg/kg/day | LOAEL (dog [6]; [23]): 0.11 mg/kg/day | NEL (dog [6]; [23]): 0.054 mg/kg/day | NOAEL (dog [6]; [23]): 0.054 mg/kg/day | LEL (dog [7]; [21]): 0.5 mg/kg/day | LOAEL (dog [7]; [21]): 0.5 mg/kg/day | NEL (dog [7]; [21]): 0.1 mg/kg/day | NOAEL (dog [7]; [21]): 0.1 mg/kg/day | LEL (dog [7]; [24]): 0.5 mg/kg/day | LOAEL (dog [7]; [24]): 0.5 mg/kg/day | NEL (dog [7]; [25]): 0.1 mg/kg/day | NOAEL (dog [7]; [25]): 0.1 mg/kg/day | LEL (mouse [8]; [26]): 10.4 mg/kg/day | LOAEL (mouse [8]; [26]): 10.4 mg/kg/day | NEL (mouse [8]; [27]): 3.2 mg/kg/day | NOAEL (mouse [8]; [27]): 3.2 mg/kg/day | LEL (rat [9]; [18]): 0.09 mg/kg/day | LOAEL (rat [9]; [18]): 0.09 mg/kg/day | NEL (rat [9]; [18]): < 0.09 mg/kg/day | NOAEL (rat [9]; [18]): < 0.09 mg/kg/day | LEL (rat [9]; [28]): 0.08 mg/kg/day | LOAEL (rat [9]; [28]): 0.08 mg/kg/day | NEL (rat [9]; [28]): < 0.08 mg/kg/day | NOAEL (rat [9]; [28]): < 0.08 mg/kg/day
